Experimental data taken from patent US7125858B2, “Hyaluronic acid in the treatment of cancer” (Bioniche Life Sciences Inc., priority 1999, dated 2006).

Tests used:
[1] = test system: MCF-7 human breast cancer cells; assay: MTT cell proliferation, MCF-7; assay type: cell-based
Method: (§1) Cell proliferation was measured using dimethylthiazoldiphenyltetrazolium (MTT) reduction (Mosman et al. J. Immunol. Methods 65:55, 1983). Unless otherwise stated, 100 μl of 5 mg of MTT (Sigma-Aldrich, St. Louis, Mo., USA) dissolved in 1 ml of PBS was added into each well. After 4 h, medium was removed from each well, 1.0 ml of acid-isopropanol (0.04 N HCl in isopropanol) was added and reduced MTT was solubilized by mixing. Absorbency of the reaction product was measured at a wavelength of 570 nm using a multiplate spectrophotometer reader (Elx800 Model, Bio-TEK Instruments Inc., Winooski, Vt., USA).
(§2) Unless stated otherwise 1.0×10^5 cells/ml were seeded in 6-well flat-bottom tissue culture plates and were maintained for 48 h at 37° C. in a 5% CO2 atmosphere.
(§3) PC-3, LNCAP and Du-145 human prostate cancer cells; MCF-7 human breast cancer cells; HT-1080 human fibrosarcoma cancer cells; B16F1 murine melanoma cells; and, UMUC-3, RT-4, HT-1376 and T-24 human bladder cancer cells were incubated with 0.8, 8.0 and 80 μg/ml of 5.0–7.5×10^5 Da HA (Table 2).
(§4) Unless stated otherwise 2.0×10^4 cells/ml were seeded in 24-well plates and were maintained for 48 h at 37° C. in a 5% CO2 atmosphere. MTT was used at 50 μl per well.
(§5) T-24 human bladder cancer cells, PC-3 and Du-145 human prostate cancer cells, and MCF-7 human breast cancer cell were incubated with saline or with 80.0 μg/ml of 5.0–7.5×10^5 Da HA+1.0 μg/ml of M-DNA (Table 4).
MCF-7 human breast cancer cells (2.5×10^5 cells/ml) were incubated as in Example 6 with 0.0, 0.01 and 0.1 μg/ml of 5.0–7.5×10^5 Da HA+100 μg/ml of the synthetic 6 base oligonucleotide GG(GT)1GG (SEQ ID NO:1) or +100 μg/ml of the […] 27 base oligonucleotide (GT)13G (SEQ ID NO:2) (Table 6). MTT was used at 50 μl per well.
(§6) RT-4 human bladder cancer cells and MCF-7 human breast cancer cells were incubated as in Example 6 with 0.0, 0.008 or 0.08 μg/ml of 5.0–7.5×10^5 Da HA+0.1 μg/ml of CIS, +1.0 μg/ml of 5-FU or +10 μg/ml of 5-FU (Table 7).
(§7) CD44 expression and the inhibition of proliferation by 5.0–7.5×10^5 Da HA were measured using Jurkat T cell leukemia cells; MCF-7 human breast cancer cells; RT-4, T-24, HT-1376 and UMUC-3 human bladder cancer cells; and, PC-3, Du-145 and LNCaP prostate cancer cells (Table 8)

[2] = test system: Jurkat T cell leukemia cells; assay: MTT cell proliferation, Jurkat T; assay type: cell-based; settings: HA 80 μg/ml alone
Method: as §1, §7

[3] = test system: B16F1 murine melanoma cells; assay: MTT cell proliferation, B16F1; assay type: cell-based; settings: 1.0×10^5 cells/ml, 48 h
Method: as §1, §2, §3

IL-12 = IL-12 production by PBMCs (ELISA); assay type: cell-based, human
Method: (§8) Peripheral blood mononuclear cells (hereinafter, “PBMCs”) were isolated from the blood of 5 healthy humans by Ficoll-Hypaque (Amersham Pharmacia Biotech, Baie d'Urfée, Québec, Canada) density gradient centrifugation of whole blood. Stimulation of IL-6 and IL-12 production by the immune system cells was determined using the appropriate commercial ELISA (BioSource, Camarillo, Calif., USA). Results are expressed as the “fold” (x) increases in cytokine production by treated cells compared to control cells. PBMCs were incubated with 1 mg/ml of 5.0–7.5×10^5 Da and production of IL-6 and IL-12 was determined (Table 9). PBMCs, isolated from the blood of individual #1, were incubated with 0.008, 0.04, 0.2 and 1 mg/ml of 5.0–7.5×10^5 Da (Table 10)

[4] = test system: Du-145 human prostate cancer cells; assay: MTT cell proliferation, Du-145; assay type: cell-based; settings: 48 h
Method: as §1, §2, §3
(§9) PC-3. LNCaP and Du-145 human prostate cancer cells were incubated with 8.0 μg/ml of 5.0–7.5×10^5 Da HA or of <1.5×10^4 Da HA (Table 3).
as §4, §5, §7

[5] = test system: T-24 human bladder cancer cells; assay: MTT cell proliferation, T-24; assay type: cell-based; settings: 48 h
Method: as §1, §2, §3, §4, §5
(§10) HT-1376, RT-4 and T-24 human bladder cancer cells were incubated with 0.8 μg/ml of 5.0–7.5×10^5 Da HA+1.0 μg/ml of MCC (Table 5).
as §7

[6] = test system: UMUC-3 human bladder cancer cells; assay: MTT cell proliferation, UMUC-3; assay type: cell-based; settings: 1.0×10^5 cells/ml, 48 h
Method: as §1, §2, §3, §7

[7] = test system: RT-4 human bladder cancer cells; assay: MTT cell proliferation, RT-4; assay type: cell-based
Method: as §1, §2, §3, §4, §10, §6, §7

[8] = test system: HT-1376 human bladder cancer cells; assay: MTT cell proliferation, HT-1376; assay type: cell-based; settings: 48 h
Method: as §1, §2, §3, §4, §10, §7

[9] = test system: HT-1080 human fibrosarcoma cancer cells; assay: MTT cell proliferation, HT-1080; assay type: cell-based; settings: 1.0×10^5 cells/ml, 48 h
Method: as §1, §2, §3

[10] = test system: LNCaP human prostate cancer cells; assay: MTT cell proliferation, LNCaP; assay type: cell-based; settings: 1.0×10^5 cells/ml, 48 h
Method: as §1, §2, §3, §9, §7

[11] = test system: PC-3 human prostate cancer cells; assay: MTT cell proliferation, PC-3; assay type: cell-based; settings: 48 h
Method: as §1, §2, §3, §9, §4, §5, §7

IL-6 = IL-6 production by PBMCs (ELISA); assay type: cell-based, human
Method: as §8

colon-26 cancer cells = settings: HA alone; colon-26 cells express high levels of HA receptors (Freemantle et al. 1995); cited from earlier work
[12] = test system: rectal, gastric, breast, prostate and endometrial cancers; settings: HA >750 mg/kg administered with various other therapeutic agents over various periods of time (PCT/CA/00283); cited from earlier work
[13] = test system: B16F10 murine melanoma tumor; settings: HA 1 mg/ml over 7 days by Alzet osmotic pump into the immediate vicinity of the tumor; cited from earlier work
[14] = MCF-7 2.5×10^5 cells/ml, oligonucleotide 100 μg/ml alone (HA 0.0 μg/ml)
[15] = PBMCs of individual 1, HA 1 mg/ml
[16] = PBMCs of individual 2, HA 1 mg/ml
[17] = PBMCs of individual 3, HA 1 mg/ml
[18] = PBMCs of individual 4, HA 1 mg/ml
[19] = PBMCs of individual 5, HA 1 mg/ml
[20] = PBMCs of individual #1, HA 0.008 mg/ml
[21] = PBMCs of individual #1, HA 0.040 mg/ml
[22] = PBMCs of individual #1, HA 0.200 mg/ml
[23] = HA 0.8 μg/ml alone, 1.0×10^5 cells/ml
[24] = HA 8.0 μg/ml alone, 1.0×10^5 cells/ml, listed as 0.5–7.5 × 10^5 Da HA
[25] = HA 80.0 μg/ml alone (+ saline), 2.0×10^4 cells/ml, 24-well
[26] = HA 80.0 μg/ml alone, 1.0×10^5 cells/ml
[27] = HA 8.0 μg/ml alone, 1.0×10^5 cells/ml
[28] = HA at 0.8 μg/ml alone (+ saline), 2.0×10^4 cells/ml, 24-well

Substance: (GT)13G (DNA GTGTGTGTGTGTGTGTGTGTGTGTGTG; listed as DNA, chemistry not given here) [(G1T)13G, synthetic 27 base oligonucleotide]
- % inhibition of cell proliferation [1, 14]: 44%

Substance: GG(GT)1GG
- % inhibition of cell proliferation [1, 14]: 20%

Substance: Hyaluronic acid [5.0–7.5 × 10^5 Da HA]
- % inhibition of proliferation [2]: 0%
- % inhibition of cell proliferation ([3]; HA 0.8 μg/ml alone): 20%
- % inhibition of cell proliferation ([3]; HA 8.0 μg/ml alone): 20%
- % inhibition of cell proliferation ([3]; HA 80.0 μg/ml alone): 30%
- IL-12 production, fold increase vs control cells (IL-12; [15]): 25.2x
- IL-12 production, fold increase vs control cells (IL-12; [16]): 7.1x
- IL-12 production, fold increase vs control cells (IL-12; [17]): 26.5x
- IL-12 production, fold increase vs control cells (IL-12; [18]): 10.0x
- IL-12 production, fold increase vs control cells (IL-12; [19]): 8.5x
- IL-12 production, fold increase vs control cells (IL-12; [20]): 4.9x
- IL-12 production, fold increase vs control cells (IL-12; [21]): 13.8x
- IL-12 production, fold increase vs control cells (IL-12; [22]): 8.5x
- % inhibition of cell proliferation [4, 23]: 6%
- % inhibition of cell proliferation [4, 24]: 15%
- % inhibition of cell proliferation [4, 25]: 38%
- % inhibition of cell proliferation [4, 26]: 38%
- % inhibition of cell proliferation ([1]; MCF-7 2.5×10^5 cells/ml, HA 0.01 μg/ml alone, no oligonucleotide): 6%
- % inhibition of cell proliferation ([1]; MCF-7 2.5×10^5 cells/ml, HA 0.1 μg/ml alone, no oligonucleotide): 5%
- % inhibition of cell proliferation ([1]; MCF-7, HA 0.008 μg/ml alone (+ saline), as in Example 6): 12%
- % inhibition of cell proliferation ([1]; MCF-7, HA 0.08 μg/ml alone (+ saline), as in Example 6): 12%
- % inhibition of cell proliferation ([1]; MCF-7, HA 0.8 μg/ml alone, 1.0×10^5 cells/ml, 48 h): 19%
- % inhibition of cell proliferation ([1]; MCF-7, HA 8.0 μg/ml alone, 1.0×10^5 cells/ml, 48 h): 24%
- % inhibition of cell proliferation ([1]; MCF-7, HA 80.0 μg/ml alone (+ saline), 2.0×10^4 cells/ml, 24-well, 48 h): 35%
- % inhibition of cell proliferation ([1]; MCF-7, HA 80.0 μg/ml alone, 1.0×10^5 cells/ml, 48 h): 35%
- % inhibition of cell proliferation [5, 23]: 10%
- % inhibition of cell proliferation [5, 27]: 8%
- % inhibition of cell proliferation [5, 25]: 0%
- % inhibition of cell proliferation [5, 26]: 0%
- % inhibition of cell proliferation [5, 28]: 8%
- % inhibition of cell proliferation ([6]; HA 0.8 μg/ml alone): 10%
- % inhibition of cell proliferation ([6]; HA 8.0 μg/ml alone): 10%
- % inhibition of cell proliferation ([6]; HA 80.0 μg/ml alone): 2%
- % inhibition of cell proliferation ([7]; HA 0.008 μg/ml alone (+ saline), as in Example 6): 0%
- % inhibition of cell proliferation ([7]; HA 0.08 μg/ml alone (+ saline), as in Example 6): 0%
- % inhibition of cell proliferation ([7]; HA 0.8 μg/ml alone, 1.0×10^5 cells/ml, 48 h): 12%
- % inhibition of cell proliferation ([7]; HA 8.0 μg/ml alone, 1.0×10^5 cells/ml, 48 h): 13%
- % inhibition of cell proliferation ([7]; HA 80.0 μg/ml alone, 1.0×10^5 cells/ml, 48 h): 5%
- % inhibition of cell proliferation ([7]; HA at 0.8 μg/ml alone (+ saline), 2.0×10^4 cells/ml, 24-well, 48 h): 13%
- % inhibition of cell proliferation [8, 23]: 0%
- % inhibition of cell proliferation [8, 27]: 3%
- % inhibition of cell proliferation [8, 26]: 1%
- % inhibition of cell proliferation [8, 28]: 3%
- % inhibition of cell proliferation ([9]; HA 0.8 μg/ml alone): 4%
- % inhibition of cell proliferation ([9]; HA 8.0 μg/ml alone): 4%
- % inhibition of cell proliferation ([9]; HA 80.0 μg/ml alone): 36%
- % inhibition of cell proliferation ([10]; HA 0.8 μg/ml alone): 7%
- % inhibition of cell proliferation ([10]; HA 8.0 μg/ml alone, listed as 0.5–7.5 × 10^5 Da HA): 13%
- % inhibition of cell proliferation [11, 23]: 15%
- % inhibition of cell proliferation [11, 24]: 26%
- % inhibition of cell proliferation [11, 25]: 30%
- IL-6 production, fold increase vs control cells (IL-6; [15]): 3.8x
- IL-6 production, fold increase vs control cells (IL-6; [16]): 1.8x
- IL-6 production, fold increase vs control cells (IL-6; [17]): 4.1x
- IL-6 production, fold increase vs control cells (IL-6; [18]): 1.4x
- IL-6 production, fold increase vs control cells (IL-6; [19]): 6.3x
- IL-6 production, fold increase vs control cells (IL-6; [20]): 2.4x
- IL-6 production, fold increase vs control cells (IL-6; [21]): 3.5x
- IL-6 production, fold increase vs control cells (IL-6; [22]): 2.9x

Substance: Hyaluronic acid [<1.5 × 10^4 Da HA]
- % inhibition of cell proliferation [4, 27]: 37%
- % inhibition of cell proliferation ([10]; HA 8.0 μg/ml alone): 24%
- % inhibition of cell proliferation [11, 27]: 5%

Substance: Hyaluronic acid [HA]
- growth of cancer cells (colon-26 cancer cells): significantly inhibits
- % inhibition of cell proliferation ([10]; HA 80.0 μg/ml alone): 26%
- % inhibition of cell proliferation [11, 26]: 30%
- effect on cancers [12]: reduced or eliminated
- reduction of tumor volume [13]: > 85%
